The record followed here is patent US20230060873A1, “COMPOUNDS AND METHODS FOR FORMING ION CHANNELS IN BIOLOGICAL MEMBRANES” (Washington University, priority 2021, published 2023).

The test system of one test is B. subtilis cells. Nature of the test: Lactate dehydrogenase release (resofurin fluorescence), lariat ether. In kind it is cell-based, Bacillus subtilis. The conditions noted are these: 2 μM, 37° C, lithium lactate/NAD+ solution. From the text: A well-established assay was utilized to measure cell lysis by monitoring the release of the enzyme lactate dehydrogenase (LDH), which is ubiquitous in the cytoplasm of all cell types. The tetrameric active form of LDH catalyzes the final step of the glycolysis in B. subtilis and has a molecular weight of approximately 146 kDa in, with a nearly globular shape of an approximated radius of 80 Å (PDB ID: 3PQD). […] LDH couples two redox reactions, the first involving the interconversion of pyruvate (oxidized) and L-lactate (reduced) and the second, the interconversion of NAD^+ (oxidized) and NADH (reduced). The NADH oxidation can be coupled to the diaphorase-catalyzed […] of resazurin to resofurin, which is highly fluorescent. When the concentrations of L-lactate, NAD^+, diaphorase, and resazurin are saturated, the rate of increase in the resofurin fluorescence is limited only by the amount of available LDH in the medium.
To prepare the experiment, a 2-mL liquid culture of B. subtilis cells was grown at 37° C. in media until OD600=0.600, and then collected by centrifugation at 2000 rpm during 3 min. […] Fluorescence intensity was recorded each second using a Horiba Fluoromax 4 spectrometer (excitation wavelength=550 nm; emission wavelength=583 nm). […] To normalize, the fluorescence was divided by the fluorescence level just before timepoint t4. […]

The subject of the next test is B. subtilis membrane. Nature of the test: DiSC3(5) depolarization assay, lariat ethers. The test is classed as cell-based, Bacillus subtilis. The conditions noted are these: for DiSC3(5) release: 2 μM, cation-free dextrose solution. The procedure: Dialkylated lariat ethers LEC6-LEC14 were then tested for their ability to depolarize a B. subtilis membrane using the fluorescent dye 3,3-dipropylthiadicarbocyanine (DiSC3(5)), which undergoes membrane voltage-dependent partitioning between the intracellular and the extracellular medium. FIGS. 23-31 show the time course of the DiSC3(5) fluorescence due to the activity of dialkylated lariat ethers with alkyl chains 6 to 14 carbons in length. The experiment was performed in a NMDG-MeSO3 solution (100 mM NMDG, 10 mM HEPES, pH adjusted to 7.4 with methanesulfonic acid). The events are: t1, addition of dye; t2, addition of B. subtilis; t3, addition of a 2 M KCl or a 2 M NMDG-Cl solution up to a final concentration of 60 mM; t4, addition of dialkylated lariat ether up to 2 μM. Control experiments were performed that were similar to the two previously described experiments, with the exception that additional NMDG-MeSO3 solution without cells was added at timepoint t2. The experiments were normalized relative to the final fluorescence intensity in the control experiments, as described below.
To conduct the experiments shown in FIGS. 23-31, a 2-mL liquid culture of B. subtilis cells was grown at 37° C. in LB media until OD600=0.600, and then collected by centrifugation at 2000 rpm during 3 min. The bacteria were washed once in NMDG-MeSO3 solution (100 mM NMDG, 10 mM HEPES, pH adjusted to 7.4 with methanesulfonic acid) or dextrose solution (200 mM dextrose, 10 mM Tris, pH adjusted to 7.4 with HCl) depending on the experiment. The centrifugation step was repeated and the bacteria were resuspended until OD600=1.0 in the same solution. The working dye solution was a 200 μM solution of DiSC3(5) (3,3′-dipropylthiadicarbocyanine iodide; Tokyo Chemical Industry) in DMSO. […] After 150 sec (timepoint t3, 250 sec) the fluorescence stabilized to a minimum intensity and 100 μL of 2M NMDG-Cl, 2M NaCl or 2 M KCl solution was added to reach a about 60 mM final concentration of the salt. […] Fluorescence intensity was recorded each second using a Horiba Fluoromax 4 spectrometer (excitation wavelength=640 nm; emission wavelength=670 nm). […] To normalize the fluorescence, experiments in the same conditions but without adding bacteria were performed, normalization was done by dividing the fluorescence by the final fluorescence level of these experiments.
Cell hyperpolarization (more negatively charged inside the cell) results in an uptake of the dye, while cell membrane depolarization (more positively charged inside the cell) results in a release of the dye. The accumulation of the dye in the interior of the cell can be detected by a decrease in fluorescence due to self-quenching, which enables the dye to be utilized as an indirect reporter of changes in cell membrane voltage. […]

For `CCCCCCCCCCN1CCOCCOCCN(CCCCCCCCCC)CCOCCOCC1` [LEC10, Didecyl diaza(18-crown-6)], the “resofurin fluorescence (LDH release)” value in the test with B. subtilis cells is listed as “rapid rise in the fluorescence”. Moreover, the “relative DiSC3(5) release in the presence of different cations” value in the test on B. subtilis membrane (2 μM compound, 60 mM KCl, NaCl or NMDG-Cl, NMDG-MeSO3 solution, 25° C) is “no significant differences”. The “DiSC3(5) release” value in the test on B. subtilis membrane (60 mM KCl added) is given as “large DiSC3(5) release”; with B. subtilis membrane (absence of any external cation) it was “same effect was also observed”.
